Measurements published in US12275731B2, “Azaindole inhibitors of wild-type and mutant forms of LRRK2” (DANA-FARBER CANCER INSTITUTE, INC., priority 2018, dated 2025).

Columns and labels:
Assay in all cases: KinomeScan profiling
Assay type in all cases: binding
AAK1 = molecular target: T1, AAK1 (Homo sapiens, UniProt Q2M2I8); conditions: AAK1, 1 μM; read-out: % control
T1 construct: purchased KinomeScan®
Outline: (§1)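 Single-point competition binding screen: 1 μM, DMSO, 468 kinases. Results reported as % control from RLU, normalised to DMSO and positive-control wells. Activity threshold: <35% control.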

[1] = molecular target: T2, ABL1(F317I)-nonphosphorylated (Homo sapiens, UniProt P00519, F317I); conditions: read-out: % control
T2 construct: purchased KinomeScan®
Outline: as §1

ACVRL1 = molecular target: T3, ACVRL1 (Homo sapiens, UniProt P37023); conditions: ACVRL1, 1 μM; read-out: % control
T3 construct: purchased KinomeScan®
T3 sequence (P37023 22-503): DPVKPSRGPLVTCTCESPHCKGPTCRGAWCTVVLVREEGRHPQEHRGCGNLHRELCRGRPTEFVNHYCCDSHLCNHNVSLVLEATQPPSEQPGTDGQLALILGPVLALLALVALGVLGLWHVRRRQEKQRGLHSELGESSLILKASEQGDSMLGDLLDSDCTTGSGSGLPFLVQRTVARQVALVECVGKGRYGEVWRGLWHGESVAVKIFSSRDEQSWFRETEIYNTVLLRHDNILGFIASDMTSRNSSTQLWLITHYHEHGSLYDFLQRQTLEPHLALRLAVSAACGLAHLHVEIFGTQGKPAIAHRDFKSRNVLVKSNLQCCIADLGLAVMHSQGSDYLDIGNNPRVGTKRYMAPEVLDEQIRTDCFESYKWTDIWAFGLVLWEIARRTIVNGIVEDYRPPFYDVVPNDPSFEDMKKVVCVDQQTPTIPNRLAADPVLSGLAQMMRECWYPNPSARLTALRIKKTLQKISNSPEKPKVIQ
Outline: as §1

CAMK1 = CAMK1 (Homo sapiens, UniProt Q14012); conditions: CAMK1, 1 μM; read-out: % control
CAMK1, sequence (Q14012 whole entry): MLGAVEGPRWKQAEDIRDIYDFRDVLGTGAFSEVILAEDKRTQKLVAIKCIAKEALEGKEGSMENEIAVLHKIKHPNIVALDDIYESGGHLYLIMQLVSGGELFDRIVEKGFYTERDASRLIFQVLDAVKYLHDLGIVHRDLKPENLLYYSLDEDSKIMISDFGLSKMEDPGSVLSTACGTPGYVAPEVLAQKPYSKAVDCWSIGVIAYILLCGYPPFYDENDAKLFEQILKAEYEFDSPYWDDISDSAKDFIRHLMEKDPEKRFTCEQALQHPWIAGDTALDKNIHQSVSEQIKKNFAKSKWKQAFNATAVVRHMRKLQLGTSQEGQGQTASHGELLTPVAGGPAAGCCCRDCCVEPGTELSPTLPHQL
Outline: as §1

EGFR(L858R) = EGFR(L858R) (Homo sapiens, UniProt P00533, L858R); conditions: read-out: % control
EGFR(L858R), sequence (P00533 25-1210 L858R): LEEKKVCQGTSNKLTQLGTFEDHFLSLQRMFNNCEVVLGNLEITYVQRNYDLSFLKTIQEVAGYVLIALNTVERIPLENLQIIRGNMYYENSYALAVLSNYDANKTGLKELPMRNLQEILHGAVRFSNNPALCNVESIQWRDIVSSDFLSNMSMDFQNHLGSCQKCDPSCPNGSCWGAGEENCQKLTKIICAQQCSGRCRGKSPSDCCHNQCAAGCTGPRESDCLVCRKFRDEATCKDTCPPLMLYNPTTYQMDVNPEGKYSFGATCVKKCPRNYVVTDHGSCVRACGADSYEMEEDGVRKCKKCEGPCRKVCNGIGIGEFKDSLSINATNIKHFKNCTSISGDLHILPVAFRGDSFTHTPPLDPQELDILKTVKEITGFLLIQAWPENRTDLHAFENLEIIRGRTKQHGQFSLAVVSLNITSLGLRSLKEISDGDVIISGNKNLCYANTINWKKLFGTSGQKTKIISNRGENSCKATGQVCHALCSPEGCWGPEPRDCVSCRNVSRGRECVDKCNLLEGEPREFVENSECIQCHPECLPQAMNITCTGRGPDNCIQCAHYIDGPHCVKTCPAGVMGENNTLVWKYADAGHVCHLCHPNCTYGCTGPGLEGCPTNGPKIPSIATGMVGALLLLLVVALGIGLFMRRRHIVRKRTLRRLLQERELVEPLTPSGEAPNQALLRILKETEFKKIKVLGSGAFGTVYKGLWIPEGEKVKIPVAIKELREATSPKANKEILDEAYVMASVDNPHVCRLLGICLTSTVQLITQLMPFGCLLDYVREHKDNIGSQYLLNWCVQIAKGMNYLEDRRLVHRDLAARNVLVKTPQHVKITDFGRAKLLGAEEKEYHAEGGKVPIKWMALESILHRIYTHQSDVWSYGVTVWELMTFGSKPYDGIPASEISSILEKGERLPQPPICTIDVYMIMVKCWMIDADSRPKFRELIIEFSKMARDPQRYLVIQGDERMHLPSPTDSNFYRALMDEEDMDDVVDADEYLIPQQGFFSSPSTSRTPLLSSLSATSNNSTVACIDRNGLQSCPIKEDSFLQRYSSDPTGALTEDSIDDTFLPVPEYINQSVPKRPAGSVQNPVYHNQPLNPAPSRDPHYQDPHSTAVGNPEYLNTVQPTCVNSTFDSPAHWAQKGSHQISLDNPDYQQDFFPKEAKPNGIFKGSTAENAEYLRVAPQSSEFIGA
Outline: as §1

ERBB3 = ERBB3 (Homo sapiens, UniProt P21860); conditions: ERBB3, 1 μM; read-out: % control
ERBB3, sequence (P21860 20-1342): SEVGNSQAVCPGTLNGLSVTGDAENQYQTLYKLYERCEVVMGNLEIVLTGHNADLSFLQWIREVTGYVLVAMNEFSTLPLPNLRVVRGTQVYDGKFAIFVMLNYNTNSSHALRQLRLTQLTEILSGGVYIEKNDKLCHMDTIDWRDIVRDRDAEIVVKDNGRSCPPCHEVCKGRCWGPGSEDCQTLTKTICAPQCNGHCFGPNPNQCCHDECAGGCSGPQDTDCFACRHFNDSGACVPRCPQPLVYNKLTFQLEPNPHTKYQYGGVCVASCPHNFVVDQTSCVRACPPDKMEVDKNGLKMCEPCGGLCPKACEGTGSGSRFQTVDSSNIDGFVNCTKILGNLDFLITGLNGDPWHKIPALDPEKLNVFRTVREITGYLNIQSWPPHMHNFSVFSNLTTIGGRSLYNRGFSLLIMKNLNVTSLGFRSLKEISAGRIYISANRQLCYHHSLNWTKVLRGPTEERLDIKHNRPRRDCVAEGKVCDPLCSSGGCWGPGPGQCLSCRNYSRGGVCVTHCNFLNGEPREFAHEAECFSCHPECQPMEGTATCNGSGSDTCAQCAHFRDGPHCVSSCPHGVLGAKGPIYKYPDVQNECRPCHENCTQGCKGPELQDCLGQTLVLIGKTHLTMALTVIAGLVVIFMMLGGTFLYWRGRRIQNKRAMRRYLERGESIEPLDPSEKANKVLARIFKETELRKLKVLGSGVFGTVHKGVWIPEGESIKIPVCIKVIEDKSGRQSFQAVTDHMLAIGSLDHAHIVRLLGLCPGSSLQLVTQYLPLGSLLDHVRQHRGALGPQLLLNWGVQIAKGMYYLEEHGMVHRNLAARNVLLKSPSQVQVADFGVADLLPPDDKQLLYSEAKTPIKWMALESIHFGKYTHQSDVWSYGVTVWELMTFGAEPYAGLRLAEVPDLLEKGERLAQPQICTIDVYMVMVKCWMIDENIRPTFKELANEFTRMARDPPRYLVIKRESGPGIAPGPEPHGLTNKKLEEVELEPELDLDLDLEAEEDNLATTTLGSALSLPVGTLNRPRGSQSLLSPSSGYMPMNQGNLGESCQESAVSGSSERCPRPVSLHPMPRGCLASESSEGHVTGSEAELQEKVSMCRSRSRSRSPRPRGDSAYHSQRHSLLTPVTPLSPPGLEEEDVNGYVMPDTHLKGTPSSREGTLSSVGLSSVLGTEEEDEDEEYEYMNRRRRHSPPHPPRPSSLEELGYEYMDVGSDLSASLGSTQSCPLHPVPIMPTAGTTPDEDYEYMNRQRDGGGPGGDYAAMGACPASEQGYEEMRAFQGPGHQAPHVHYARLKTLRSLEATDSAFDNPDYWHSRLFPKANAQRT
Outline: as §1

FGFR1 = FGFR1 (Homo sapiens, UniProt P11362); conditions: FGFR1, 1 μM; read-out: % control
Outline: as §1

GSK3B = GSK3B (Homo sapiens, UniProt P49841); conditions: read-out: % control
GSK3B, sequence (P49841 whole entry): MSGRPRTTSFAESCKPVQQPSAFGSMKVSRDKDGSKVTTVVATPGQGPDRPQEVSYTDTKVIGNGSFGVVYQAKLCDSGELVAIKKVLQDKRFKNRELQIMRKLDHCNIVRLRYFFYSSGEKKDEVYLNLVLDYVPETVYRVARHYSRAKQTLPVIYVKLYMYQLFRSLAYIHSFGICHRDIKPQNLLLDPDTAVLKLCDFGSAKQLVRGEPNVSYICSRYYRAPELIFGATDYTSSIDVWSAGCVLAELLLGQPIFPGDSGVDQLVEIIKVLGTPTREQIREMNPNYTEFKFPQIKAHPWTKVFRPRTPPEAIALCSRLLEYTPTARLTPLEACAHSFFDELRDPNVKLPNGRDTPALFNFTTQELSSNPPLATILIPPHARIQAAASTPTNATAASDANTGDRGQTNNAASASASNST
Outline: as §1

HASPIN = molecular target: T4, HASPIN (Homo sapiens, UniProt Q8TF76); conditions: read-out: % control
T4 sequence (Q8TF76 1-798): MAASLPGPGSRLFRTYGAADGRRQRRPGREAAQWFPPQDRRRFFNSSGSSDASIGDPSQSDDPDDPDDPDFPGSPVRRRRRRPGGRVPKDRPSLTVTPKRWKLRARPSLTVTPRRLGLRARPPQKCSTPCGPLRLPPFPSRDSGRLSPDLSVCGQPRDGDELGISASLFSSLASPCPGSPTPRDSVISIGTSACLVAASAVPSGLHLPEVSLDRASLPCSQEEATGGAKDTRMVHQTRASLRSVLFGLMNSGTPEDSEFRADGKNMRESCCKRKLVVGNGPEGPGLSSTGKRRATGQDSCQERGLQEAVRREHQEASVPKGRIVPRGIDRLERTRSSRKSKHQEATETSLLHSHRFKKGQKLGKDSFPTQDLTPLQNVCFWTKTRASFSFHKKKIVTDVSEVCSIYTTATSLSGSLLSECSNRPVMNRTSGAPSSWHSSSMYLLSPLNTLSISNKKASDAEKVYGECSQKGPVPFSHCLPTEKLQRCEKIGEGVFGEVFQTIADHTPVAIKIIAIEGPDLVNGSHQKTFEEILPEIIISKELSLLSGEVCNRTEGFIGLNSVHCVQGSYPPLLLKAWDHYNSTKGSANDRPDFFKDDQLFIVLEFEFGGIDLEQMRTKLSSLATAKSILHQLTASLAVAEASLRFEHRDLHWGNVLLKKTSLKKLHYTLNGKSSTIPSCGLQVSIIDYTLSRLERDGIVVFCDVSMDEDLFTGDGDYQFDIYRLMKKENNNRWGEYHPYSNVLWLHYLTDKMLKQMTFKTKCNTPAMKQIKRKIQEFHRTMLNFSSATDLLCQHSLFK
Outline: as §1

HIPK2 = HIPK2 (Homo sapiens, UniProt Q9H2X6); conditions: HIPK2, 1 μM; read-out: % control
Outline: as §1

LIMK1 = LIMK1 (Homo sapiens, UniProt P53667); conditions: LIMK1, 1 μM; read-out: % control
LIMK1, sequence (P53667 whole entry): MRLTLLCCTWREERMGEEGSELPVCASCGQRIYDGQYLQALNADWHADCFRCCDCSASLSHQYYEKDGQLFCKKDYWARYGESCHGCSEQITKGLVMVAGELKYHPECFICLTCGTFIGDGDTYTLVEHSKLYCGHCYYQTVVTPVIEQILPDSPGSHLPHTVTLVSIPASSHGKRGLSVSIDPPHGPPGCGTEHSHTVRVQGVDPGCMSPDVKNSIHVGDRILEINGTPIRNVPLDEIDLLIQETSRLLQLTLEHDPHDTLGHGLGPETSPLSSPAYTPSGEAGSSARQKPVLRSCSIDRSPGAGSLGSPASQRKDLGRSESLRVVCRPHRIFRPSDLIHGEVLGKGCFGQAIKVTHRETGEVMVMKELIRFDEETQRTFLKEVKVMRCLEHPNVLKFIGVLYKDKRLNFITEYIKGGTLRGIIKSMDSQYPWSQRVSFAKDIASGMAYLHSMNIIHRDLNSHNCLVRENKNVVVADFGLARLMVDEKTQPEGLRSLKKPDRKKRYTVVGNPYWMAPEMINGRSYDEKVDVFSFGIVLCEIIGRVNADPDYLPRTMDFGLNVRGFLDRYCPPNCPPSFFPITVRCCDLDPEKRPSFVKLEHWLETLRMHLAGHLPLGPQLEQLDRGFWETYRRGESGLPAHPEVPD
Outline: as §1

LIMK2 = LIMK2 (Homo sapiens, UniProt P53671); conditions: LIMK2, 1 μM; read-out: % control
Outline: as §1

MERTK = molecular target: T5, MERTK (Homo sapiens, UniProt Q12866); conditions: read-out: % control
T5 sequence (Q12866 21-999): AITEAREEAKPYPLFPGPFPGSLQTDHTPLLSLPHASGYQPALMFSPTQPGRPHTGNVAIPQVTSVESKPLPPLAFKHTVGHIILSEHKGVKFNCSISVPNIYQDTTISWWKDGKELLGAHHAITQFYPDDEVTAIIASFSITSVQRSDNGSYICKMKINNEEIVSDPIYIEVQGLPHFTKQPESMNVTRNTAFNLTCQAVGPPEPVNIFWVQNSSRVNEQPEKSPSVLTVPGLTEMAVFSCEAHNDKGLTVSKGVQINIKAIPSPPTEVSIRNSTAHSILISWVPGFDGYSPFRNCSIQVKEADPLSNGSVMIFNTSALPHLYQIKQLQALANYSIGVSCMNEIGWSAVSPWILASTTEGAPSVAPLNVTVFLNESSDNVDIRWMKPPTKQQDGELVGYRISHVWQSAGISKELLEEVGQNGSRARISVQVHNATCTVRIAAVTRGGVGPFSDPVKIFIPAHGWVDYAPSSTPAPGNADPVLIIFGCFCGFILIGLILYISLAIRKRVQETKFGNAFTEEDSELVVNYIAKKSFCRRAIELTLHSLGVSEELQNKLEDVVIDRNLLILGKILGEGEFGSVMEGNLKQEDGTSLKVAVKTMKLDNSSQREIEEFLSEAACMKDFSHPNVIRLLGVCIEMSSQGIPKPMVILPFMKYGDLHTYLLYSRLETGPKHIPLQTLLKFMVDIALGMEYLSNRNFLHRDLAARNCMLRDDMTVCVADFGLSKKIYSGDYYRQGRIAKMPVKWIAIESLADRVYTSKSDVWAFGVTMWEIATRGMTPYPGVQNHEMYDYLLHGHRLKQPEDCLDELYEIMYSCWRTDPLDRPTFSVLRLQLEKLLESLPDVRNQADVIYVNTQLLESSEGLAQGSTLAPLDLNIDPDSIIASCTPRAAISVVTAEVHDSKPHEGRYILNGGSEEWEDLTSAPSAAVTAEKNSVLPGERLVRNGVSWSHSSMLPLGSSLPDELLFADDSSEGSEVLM
Outline: as §1

PIP5K1A = molecular target: T6, PIP5K1A (Homo sapiens, UniProt Q99755); conditions: read-out: % control
T6 construct: purchased KinomeScan® (panel service)
T6 sequence (Q99755 whole entry): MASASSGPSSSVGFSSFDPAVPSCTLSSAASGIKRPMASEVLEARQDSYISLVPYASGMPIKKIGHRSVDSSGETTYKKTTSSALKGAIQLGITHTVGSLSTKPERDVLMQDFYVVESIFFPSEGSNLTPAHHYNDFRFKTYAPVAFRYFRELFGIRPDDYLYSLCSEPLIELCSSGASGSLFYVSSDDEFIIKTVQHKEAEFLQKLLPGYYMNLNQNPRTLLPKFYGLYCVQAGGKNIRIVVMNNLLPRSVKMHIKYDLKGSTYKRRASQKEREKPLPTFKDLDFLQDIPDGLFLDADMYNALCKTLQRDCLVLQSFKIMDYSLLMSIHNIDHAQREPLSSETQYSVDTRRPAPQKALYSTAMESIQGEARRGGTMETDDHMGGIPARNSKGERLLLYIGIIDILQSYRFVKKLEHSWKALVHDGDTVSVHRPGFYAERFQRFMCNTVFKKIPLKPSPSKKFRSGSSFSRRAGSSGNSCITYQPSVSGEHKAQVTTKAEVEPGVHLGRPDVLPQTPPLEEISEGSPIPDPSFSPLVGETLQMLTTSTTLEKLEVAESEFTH
Outline: as §1

Compound	remaining binding at 1 µM (AAK1) [%]	remaining binding at 1 µM [1] [%]	remaining binding at 1 µM (ACVRL1) [%]	remaining binding at 1 µM (CAMK1) [%]	remaining binding at 1 µM (EGFR(L858R)) [%]	remaining binding at 1 µM (ERBB3) [%]	remaining binding at 1 µM (FGFR1) [%]	remaining binding at 1 µM (GSK3B) [%]	remaining binding at 1 µM (HASPIN) [%]	remaining binding at 1 µM (HIPK2) [%]	remaining binding at 1 µM (LIMK1) [%]	remaining binding at 1 µM (LIMK2) [%]	remaining binding at 1 µM (MERTK) [%]	remaining binding at 1 µM (PIP5K1A) [%]
CNc1c(-c2cnn([C@H]3CCN(C(C)=O)C[C@@H]3F)c2)cnc2[nH]cc(Cl)c12 [Compound 77, 1-((3S,4S)-4-(4-(3-chloro-4-(methylamino)-1H-pyrrolo[2,3-b]pyridin-5-yl)-1H-pyrazol-1-yl)-3-fluoropiperidin-1-yl)ethan-1-one]	36	100	100	84	100	88	87	69	9.8	81	100	97	45	7.7
CNc1c(-c2ccc(C(=O)N3CCC(N4CCOCC4)CC3)cc2)cnc2[nH]cc(Cl)c12 [Compound 96, (4-(3-chloro-4-(methylamino)-1H-pyrrolo[2,3-b]pyridin-5-yl)phenyl)(4-morpholinopiperidin-1-yl)methanone]	23	100	100	87	100	86	85	63	1.3	74	100	100	42	16
O=C(c1ccc(-c2cnc3[nH]cc(Cl)c3c2NC2CCCC2)cc1)N1CCC(N2CCOCC2)CC1 [Compound 101, (4-(3-chloro-4-(cyclopentylamino)-1H-pyrrolo[2,3-b]pyridin-5-yl)phenyl)(4-morpholinopiperidin-1-yl)methanone]	67	100	100	98	96	55	77	100	22	100	76	99	41	12
